Assay results: ChEMBL document CHEMBL1151368, “Some new decussine-type alkaloids from Strychnos decussata, Strychnos dale and Strychnos elaecocarpa” (1981)
Active and inactive are the calls of the source. The rule behind the calls is not given here.

Experiments:
Type in all cases: functional
Rattus norvegicus [1] = species: Rattus norvegicus; test: Muscle relaxant activity in rat assessed as reduction in electrically stimulated phrenic nerve-induced diaphragm contraction at 50 ug/ml
Rattus norvegicus [2] = species: Rattus norvegicus; test: Muscle relaxant activity in rat assessed as reduction in electrically stimulated phrenic nerve-induced diaphragm contraction at 5.1 ug/ml; set-up: scale not given: the % may be the effect or the level left
Rattus norvegicus [3] = species: Rattus norvegicus; test: Muscle relaxant activity in rat assessed as reduction in electrically stimulated phrenic nerve-induced diaphragm contraction at 5.1 ug/ml in presence of synstigmine

C[C@@H]1c2cnccc2CC2c3c(c4ccccc4n31)CCN2C (stereo partly drawn)
Activity (Rattus norvegicus [1]): inactive

C[C@@H]1c2cnccc2C=C2c3c(c4ccccc4n31)CCN2C [DECUSSINE]
Activity (Rattus norvegicus [2]): 50% | Activity (Rattus norvegicus [3]): Active
